Consider eleven compounds from ChEMBL document CHEMBL1124939, “Synthesis of thromboxane receptor antagonists with bicyclo[3.1.0]hexane ring systems” (J Med Chem, 1990).

Type in all cases: functional
For assay [1], the species on record is Oryctolagus cuniculus. Description: Tested for the inhibitory activity against aggregation of rabbit platelet-rich plasma (PRP) induced by 500 uM of arachidonic acid.
For assay [2], the species on record is Rattus norvegicus. Description: Tested for the inhibitory activity against aggregation of rat washed platelets (WP) induced by 4 micro g/mL of collagen.
The species entered for assay [3] is Rattus norvegicus. Description: The partial agonistic activity (shape change of rat WP) induced by test compound at 1 uM was calibrated for that of S-145.

On to `O=C([O-])CCC/C=C\C[C@H]1[C@@H]2C[C@@H]2C[C@@H]1NS(=O)(=O)c1ccccc1.[Na+]` (racemic), for which the IC50 was determined as 11300 nM in assay [1] and 12.5 nM in assay [2]. The compound further registered a Relative agonist activity in assay [3] of 22.

`O=C([O-])CCC/C=C\C[C@H]1[C@@H]2S[C@@H]2C[C@@H]1NS(=O)(=O)c1ccccc1.[Na+]` (racemic): the results for the IC50 in assay [1] and in assay [2] were 178000 nM and 10 nM, respectively. In addition, the Relative agonist activity in assay [3] is given as 0.

Consider `O=C([O-])CCC/C=C\C[C@H]1C2O[C@H]2C[C@@H]1NS(=O)(=O)c1ccccc1.[Na+]` (mixture of isomers), for which the IC50 in assay [1] is 2600 nM; in assay [2], 4 nM. In addition, the Relative agonist activity in assay [3] is reported as 82.

Consider `O=C(O)CCC/C=C\C[C@H]1[C@@H]2CCC(C2)[C@@H]1NS(=O)(=O)c1ccccc1`, for which the figures for the IC50 in assay [1] and in assay [2] were 1000 nM and 1 nM, respectively. This compound returned a Relative agonist activity in assay [3] of 100.

In the case of `O=C([O-])CCC/C=C\C[C@H]1C2OC2C[C@@H]1NS(=O)(=O)c1ccccc1.[Na+]` (mixture of isomers), the IC50 in assay [1] was determined as 391000 nM; in assay [2], 100 nM. Also, the Relative agonist activity in assay [3] was 0.

`CC1(C)[C@@H]2[C@H](C/C=C\CCCC(=O)[O-])[C@@H](NS(=O)(=O)c3ccccc3)C[C@@H]21.[Na+]` (racemic): the results for the IC50 in assay [1] and in assay [2] were 44000 nM and 4.3 nM, respectively. This compound also came in with a Relative agonist activity in assay [3] of 22.

With `O=C([O-])CCC/C=C\C[C@H]1C2CC2C[C@H]1NS(=O)(=O)c1ccccc1.[Na+]` (mixture of isomers), the IC50 was determined as 37800 nM in assay [1] and 25 nM in assay [2]. In assay [3], this compound gave a Relative agonist activity of 33.

Regarding `O=C([O-])CCC/C=C\C[C@H]1[C@H]2S[C@H]2C[C@@H]1NS(=O)(=O)c1ccccc1.[Na+]` (racemic), the half-inhibitory concentration (IC50) stood at 11300 nM in assay [1] and 2.9 nM in assay [2]. The Relative agonist activity in assay [3] is reported as 74.

For the compound `CC1(C)[C@H]2[C@H](C/C=C\CCCC(=O)[O-])[C@@H](NS(=O)(=O)c3ccccc3)C[C@H]21.[Na+]` (racemic), the figures for the IC50 in assay [1] and in assay [2] were 432000 nM and 4.1 nM, respectively. In addition, the Relative agonist activity in assay [3] amounted to 11.

In the case of `O=C([O-])CCC/C=C\C[C@H]1C2O[C@H]2C[C@H]1NS(=O)(=O)c1ccccc1.[Na+]` (mixture of isomers), the IC50 was determined as 49100 nM in assay [1] and 23 nM in assay [2]. The Relative agonist activity in assay [3] turned out to be 26.

For the compound `O=C([O-])CCC/C=C\C[C@H]1[C@H]2C[C@H]2C[C@@H]1NS(=O)(=O)c1ccccc1.[Na+]` (racemic), the IC50 in assay [1] stood at 5300 nM; in assay [2], 8.3 nM. In assay [3], this compound had a Relative agonist activity of 67.
